According to article PMC9234961 (Journal of Medicinal Chemistry, 2022):
Read-outs that look alike come from different tables or passages of the source.

Tests used:
kinases (468) [1] = target: kinases (468) (Homo sapiens, UniProt O00238); conditions: BMPR1B; 1000 nM
kinases (468) [2] = target: kinases (468) (Homo sapiens, UniProt O14976); conditions: GAK; 1000 nM
kinases (468) [3] = target: kinases (468) (Homo sapiens, UniProt O60331); conditions: PIP5K1C; 1000 nM
kinases (468) [4] = target: kinases (468) (Homo sapiens, UniProt O60674); conditions: JAK2(JH1domain-catalytic); 1000 nM
kinases (468) [5] = target: kinases (468) (Homo sapiens, UniProt O75676); conditions: compound concentration 1000 nM
kinases (468) (Homo sapiens, UniProt O75676), sequence (O75676 whole entry): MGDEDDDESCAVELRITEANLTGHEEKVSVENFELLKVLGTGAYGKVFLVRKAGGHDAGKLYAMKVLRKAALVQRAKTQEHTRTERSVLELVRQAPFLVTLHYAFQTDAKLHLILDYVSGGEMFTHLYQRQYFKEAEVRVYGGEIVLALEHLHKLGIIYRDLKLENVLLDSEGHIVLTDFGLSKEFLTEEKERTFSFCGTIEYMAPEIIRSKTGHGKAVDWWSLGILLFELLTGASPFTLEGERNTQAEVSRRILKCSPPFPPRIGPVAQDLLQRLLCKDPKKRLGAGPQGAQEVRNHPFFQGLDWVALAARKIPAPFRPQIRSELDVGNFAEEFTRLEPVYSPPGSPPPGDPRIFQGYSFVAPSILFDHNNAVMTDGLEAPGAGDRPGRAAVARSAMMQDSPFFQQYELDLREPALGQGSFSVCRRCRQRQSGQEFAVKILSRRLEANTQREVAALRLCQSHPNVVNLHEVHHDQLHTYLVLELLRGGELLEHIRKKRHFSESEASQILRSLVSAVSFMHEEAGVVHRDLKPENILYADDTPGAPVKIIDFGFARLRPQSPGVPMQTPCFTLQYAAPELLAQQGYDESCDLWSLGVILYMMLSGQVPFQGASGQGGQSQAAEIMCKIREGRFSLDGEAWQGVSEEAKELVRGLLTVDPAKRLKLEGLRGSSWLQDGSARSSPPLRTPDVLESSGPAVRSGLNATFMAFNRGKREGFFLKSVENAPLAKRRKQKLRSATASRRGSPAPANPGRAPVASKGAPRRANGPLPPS

kinases (468) [6] = target: kinases (468) (Homo sapiens, UniProt O75716); conditions: kinase STK16 (Entrez STK16); compound concentration 1000 nM
kinases (468) (Homo sapiens, UniProt O75716), sequence (O75716 whole entry): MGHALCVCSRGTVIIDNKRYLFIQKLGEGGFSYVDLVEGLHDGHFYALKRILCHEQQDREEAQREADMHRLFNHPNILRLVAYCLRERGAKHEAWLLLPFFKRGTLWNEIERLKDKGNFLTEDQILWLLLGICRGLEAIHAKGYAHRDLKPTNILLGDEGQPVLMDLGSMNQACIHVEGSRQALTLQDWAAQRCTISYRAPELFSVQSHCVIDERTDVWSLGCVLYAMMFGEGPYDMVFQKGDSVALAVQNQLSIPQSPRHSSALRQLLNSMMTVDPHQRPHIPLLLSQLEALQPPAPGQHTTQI

kinases (468) [7] = target: kinases (468) (Homo sapiens, UniProt P00519, H396P); conditions: 1000 nM
kinases (468) [8] = target: kinases (468) (Homo sapiens, UniProt P07333); conditions: 1000 nM
kinases (468) (Homo sapiens, UniProt P07333), sequence (P07333 20-972): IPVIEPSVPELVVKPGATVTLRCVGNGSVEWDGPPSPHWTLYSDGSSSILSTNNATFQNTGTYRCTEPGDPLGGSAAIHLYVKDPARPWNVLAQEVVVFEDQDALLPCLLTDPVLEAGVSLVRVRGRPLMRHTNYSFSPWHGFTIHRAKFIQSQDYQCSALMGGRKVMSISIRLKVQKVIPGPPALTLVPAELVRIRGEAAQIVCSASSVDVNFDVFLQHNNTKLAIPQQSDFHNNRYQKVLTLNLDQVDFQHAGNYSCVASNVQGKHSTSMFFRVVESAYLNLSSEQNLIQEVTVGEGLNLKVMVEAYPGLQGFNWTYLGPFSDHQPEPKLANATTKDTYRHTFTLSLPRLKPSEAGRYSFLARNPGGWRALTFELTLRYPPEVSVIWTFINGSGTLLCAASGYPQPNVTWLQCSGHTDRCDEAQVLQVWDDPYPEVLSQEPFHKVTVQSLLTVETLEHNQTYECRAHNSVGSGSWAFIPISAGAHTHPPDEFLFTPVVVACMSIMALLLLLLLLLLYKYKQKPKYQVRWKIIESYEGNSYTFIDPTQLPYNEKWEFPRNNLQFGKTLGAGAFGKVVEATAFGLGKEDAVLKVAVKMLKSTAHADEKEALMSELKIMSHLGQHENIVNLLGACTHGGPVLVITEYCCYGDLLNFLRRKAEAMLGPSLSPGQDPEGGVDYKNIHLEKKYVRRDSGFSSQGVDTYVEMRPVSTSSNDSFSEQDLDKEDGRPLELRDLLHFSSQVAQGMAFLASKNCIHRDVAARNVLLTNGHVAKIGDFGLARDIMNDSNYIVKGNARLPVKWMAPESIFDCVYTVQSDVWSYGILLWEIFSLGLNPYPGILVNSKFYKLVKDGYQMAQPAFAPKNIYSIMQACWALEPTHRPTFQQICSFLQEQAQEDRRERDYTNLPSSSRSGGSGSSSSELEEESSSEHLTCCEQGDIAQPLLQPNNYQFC

kinases (468) [9] = target: kinases (468) (Homo sapiens, UniProt P15056, V600E); conditions: BRAF(V600E); 1000 nM
kinases (468) [10] = target: kinases (468) (Homo sapiens, UniProt P16591); conditions: FER; 1000 nM
kinases (468) (Homo sapiens, UniProt P16591), sequence (P16591 whole entry): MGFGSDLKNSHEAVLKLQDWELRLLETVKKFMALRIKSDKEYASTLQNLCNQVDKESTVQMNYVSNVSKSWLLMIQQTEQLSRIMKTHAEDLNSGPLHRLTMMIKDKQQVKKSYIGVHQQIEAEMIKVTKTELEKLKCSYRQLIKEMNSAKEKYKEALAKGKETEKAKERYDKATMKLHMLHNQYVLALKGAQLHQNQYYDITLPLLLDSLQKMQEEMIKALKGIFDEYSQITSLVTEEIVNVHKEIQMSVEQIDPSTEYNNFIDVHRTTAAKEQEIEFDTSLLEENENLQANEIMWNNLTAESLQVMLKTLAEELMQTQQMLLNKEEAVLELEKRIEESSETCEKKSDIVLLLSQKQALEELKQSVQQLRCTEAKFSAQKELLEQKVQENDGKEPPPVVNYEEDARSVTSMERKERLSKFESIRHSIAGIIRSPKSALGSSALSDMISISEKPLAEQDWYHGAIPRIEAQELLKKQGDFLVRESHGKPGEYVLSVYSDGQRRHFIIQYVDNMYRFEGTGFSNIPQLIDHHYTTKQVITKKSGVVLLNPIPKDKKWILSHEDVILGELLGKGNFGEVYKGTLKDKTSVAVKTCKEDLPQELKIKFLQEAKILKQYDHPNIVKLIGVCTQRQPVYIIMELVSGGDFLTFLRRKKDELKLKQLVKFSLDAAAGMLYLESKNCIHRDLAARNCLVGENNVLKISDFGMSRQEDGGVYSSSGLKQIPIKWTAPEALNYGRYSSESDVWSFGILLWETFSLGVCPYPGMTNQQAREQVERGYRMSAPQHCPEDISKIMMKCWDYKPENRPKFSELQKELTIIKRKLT

kinases (468) [11] = target: kinases (468) (Homo sapiens, UniProt P29317); conditions: EPHA2; 1000 nM
kinases (468) [12] = target: kinases (468) (Homo sapiens, UniProt P36896); conditions: ACVR1B; 1000 nM
kinases (468) (Homo sapiens, UniProt P36896), sequence (P36896 24-505): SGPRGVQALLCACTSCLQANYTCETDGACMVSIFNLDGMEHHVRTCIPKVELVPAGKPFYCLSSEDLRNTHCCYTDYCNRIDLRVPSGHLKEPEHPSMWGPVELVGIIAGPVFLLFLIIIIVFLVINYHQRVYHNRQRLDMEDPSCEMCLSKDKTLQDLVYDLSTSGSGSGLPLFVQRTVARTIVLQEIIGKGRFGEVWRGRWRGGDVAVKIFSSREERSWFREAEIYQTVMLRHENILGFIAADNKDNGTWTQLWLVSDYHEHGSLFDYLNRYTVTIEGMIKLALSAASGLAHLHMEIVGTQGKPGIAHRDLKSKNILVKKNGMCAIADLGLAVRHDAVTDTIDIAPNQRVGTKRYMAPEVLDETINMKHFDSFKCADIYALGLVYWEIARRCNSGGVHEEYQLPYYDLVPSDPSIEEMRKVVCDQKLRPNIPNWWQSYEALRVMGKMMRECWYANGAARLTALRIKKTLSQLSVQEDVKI

kinases (468) [13] = target: kinases (468) (Homo sapiens, UniProt P49674); conditions: CSNK1E; 1000 nM
kinases (468) [14] = target: kinases (468) (Homo sapiens, UniProt P51617); conditions: IRAK1; 1000 nM
kinases (468) [15] = target: kinases (468) (Homo sapiens, UniProt P51813); conditions: BMX; 1000 nM
kinases (468) [16] = target: kinases (468) (Homo sapiens, UniProt P53778); conditions: p38-gamma (MAPK12); 1000 nM
kinases (468) (Homo sapiens, UniProt P53778), sequence (P53778 whole entry): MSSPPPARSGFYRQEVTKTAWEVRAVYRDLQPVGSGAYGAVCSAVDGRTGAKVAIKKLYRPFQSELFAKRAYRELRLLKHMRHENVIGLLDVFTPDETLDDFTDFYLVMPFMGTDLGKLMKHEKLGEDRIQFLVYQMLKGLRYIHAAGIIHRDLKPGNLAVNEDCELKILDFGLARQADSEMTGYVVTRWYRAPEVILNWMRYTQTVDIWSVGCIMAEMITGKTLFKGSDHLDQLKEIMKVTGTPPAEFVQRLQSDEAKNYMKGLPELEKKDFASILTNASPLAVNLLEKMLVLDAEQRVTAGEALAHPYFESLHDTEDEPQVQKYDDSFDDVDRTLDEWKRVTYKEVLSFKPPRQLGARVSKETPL

kinases (468) [17] = target: kinases (468) (Homo sapiens, UniProt P57059); conditions: kinase SIK (Entrez SIK1); compound concentration 1000 nM
kinases (468) (Homo sapiens, UniProt P57059), sequence (P57059 whole entry): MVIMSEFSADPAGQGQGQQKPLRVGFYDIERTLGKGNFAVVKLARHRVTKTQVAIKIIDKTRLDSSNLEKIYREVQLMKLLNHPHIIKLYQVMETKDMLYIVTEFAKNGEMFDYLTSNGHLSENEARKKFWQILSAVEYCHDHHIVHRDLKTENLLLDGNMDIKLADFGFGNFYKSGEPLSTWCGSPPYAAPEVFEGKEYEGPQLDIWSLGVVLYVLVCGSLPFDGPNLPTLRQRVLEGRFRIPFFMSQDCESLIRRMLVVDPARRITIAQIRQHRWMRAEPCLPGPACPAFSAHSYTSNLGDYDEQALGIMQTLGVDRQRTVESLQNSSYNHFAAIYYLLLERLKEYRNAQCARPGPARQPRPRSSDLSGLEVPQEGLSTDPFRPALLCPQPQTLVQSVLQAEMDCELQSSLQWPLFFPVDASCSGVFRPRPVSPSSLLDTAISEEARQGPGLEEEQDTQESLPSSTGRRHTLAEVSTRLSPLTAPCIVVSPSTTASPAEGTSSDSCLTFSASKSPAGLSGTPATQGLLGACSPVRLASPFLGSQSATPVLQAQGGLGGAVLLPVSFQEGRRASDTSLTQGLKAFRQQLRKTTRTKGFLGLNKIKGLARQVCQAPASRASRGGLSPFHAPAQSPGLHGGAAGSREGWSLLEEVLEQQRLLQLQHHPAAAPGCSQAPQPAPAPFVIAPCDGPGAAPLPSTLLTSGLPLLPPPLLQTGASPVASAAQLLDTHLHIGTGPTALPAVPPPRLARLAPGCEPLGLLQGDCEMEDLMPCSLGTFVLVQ

kinases (468) [18] = target: kinases (468) (Homo sapiens, UniProt Q02750); conditions: MEK1 (MAP2K1); 1000 nM
kinases (468) [19] = target: kinases (468) (Homo sapiens, UniProt Q04771); conditions: ACVR1; 1000 nM
kinases (468) [20] = target: kinases (468) (Homo sapiens, UniProt Q05397); conditions: FAK (PTK2); 1000 nM
kinases (468) [21] = target: kinases (468) (Homo sapiens, UniProt Q05655); conditions: PRKCD; 1000 nM
kinases (468) [22] = target: kinases (468) (Homo sapiens, UniProt Q12866); conditions: MERTK; 1000 nM
kinases (468) [23] = target: kinases (468) (Homo sapiens, UniProt Q13163); conditions: MEK5 (MAP2K5); 1000 nM
kinases (468) [24] = target: kinases (468) (Homo sapiens, UniProt Q14164); conditions: IKK-epsilon (IKBKE); 1000 nM
kinases (468) [25] = target: kinases (468) (Homo sapiens, UniProt Q16288); conditions: kinase TRKC (Entrez NTRK3); compound concentration 1000 nM
kinases (468) [26] = target: kinases (468) (Homo sapiens, UniProt Q16566); conditions: CAMK4; 1000 nM
kinases (468) [27] = target: kinases (468) (Homo sapiens, UniProt Q86UE8); conditions: kinase TLK2 (Entrez TLK2); compound concentration 1000 nM
kinases (468) [28] = target: kinases (468) (Homo sapiens, UniProt Q8NG66); conditions: NEK11; 1000 nM
kinases (468) [29] = target: kinases (468) (Homo sapiens, UniProt Q8WTQ7); conditions: GRK7; 1000 nM
kinases (468) (Homo sapiens, UniProt Q8WTQ7), sequence (Q8WTQ7 whole entry): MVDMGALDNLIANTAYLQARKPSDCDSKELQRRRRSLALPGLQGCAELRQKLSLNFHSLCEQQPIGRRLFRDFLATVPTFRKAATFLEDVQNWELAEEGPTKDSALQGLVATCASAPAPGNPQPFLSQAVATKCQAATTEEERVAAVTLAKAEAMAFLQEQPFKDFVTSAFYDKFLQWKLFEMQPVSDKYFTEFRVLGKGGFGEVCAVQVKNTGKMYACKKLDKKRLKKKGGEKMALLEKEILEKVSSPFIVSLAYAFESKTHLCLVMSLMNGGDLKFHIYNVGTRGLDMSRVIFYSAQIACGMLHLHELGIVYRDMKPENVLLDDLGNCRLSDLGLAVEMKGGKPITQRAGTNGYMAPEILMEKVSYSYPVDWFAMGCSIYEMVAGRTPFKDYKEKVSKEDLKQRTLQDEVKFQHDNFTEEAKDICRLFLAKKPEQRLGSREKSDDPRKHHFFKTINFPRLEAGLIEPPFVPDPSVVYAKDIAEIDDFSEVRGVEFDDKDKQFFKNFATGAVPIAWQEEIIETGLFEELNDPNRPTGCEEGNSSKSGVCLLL

kinases (468) [30] = target: kinases (468) (Homo sapiens, UniProt Q99755); conditions: PIP5K1A; 1000 nM
kinases (468) [31] = target: kinases (468) (Homo sapiens, UniProt Q9BZL6); conditions: PRKD2; 1000 nM
kinases (468) [32] = target: kinases (468) (Homo sapiens, UniProt Q9H093); conditions: kinase SNARK (Entrez NUAK2); compound concentration 1000 nM
kinases (468) [33] = target: kinases (468) (Homo sapiens, UniProt Q9P0L2); conditions: MARK1; 1000 nM
kinases (468) [34] = target: kinases (468) (Homo sapiens, UniProt Q9UM73, C1156Y); conditions: ALK(C1156Y); 1000 nM

C[C@H]1C[C@@H](O)CN(c2ncc(Cl)c(Nc3ccc4c(c3)c3c(c(=O)n4C)OCC(F)(F)[C@H](C4CC4)N3)n2)C1 [CCT373566_9A]
Percent Control (kinases (468) [1]): 97%
Percent Control (kinases (468) [2]): 86%
Percent Control (kinases (468) [3]): 91%
Percent Control (kinases (468) [4]): 97%
Percent Control (kinases (468) [5]; kinase RPS6KA4(Kin.Dom.1-N-terminal) (Entrez RPS6KA4)): 96%
Percent Control (kinases (468) [5]; kinase RPS6KA4(Kin.Dom.2-C-terminal) (Entrez RPS6KA4)): 100%
Percent Control (kinases (468) [6]): 88%
Percent Control (kinases (468) [7]; ABL1(H396P)-nonphosphorylated): 83%
Percent Control (kinases (468) [7]; ABL1(H396P)-phosphorylated): 94%
Percent Control (kinases (468) [8]; CSF1R-autoinhibited): 77%
Percent Control (kinases (468) [8]; CSF1R): 100%
Percent Control (kinases (468) [9]): 100%
Percent Control (kinases (468) [10]): 100%
Percent Control (kinases (468) [11]): 99%
Percent Control (kinases (468) [12]): 100%
Percent Control (kinases (468) [13]): 90%
Percent Control (kinases (468) [14]): 77%
Percent Control (kinases (468) [15]): 100%
Percent Control (kinases (468) [16]): 92%
Percent Control (kinases (468) [17]): 98%
Percent Control (kinases (468) [18]): 90%
Percent Control (kinases (468) [19]): 85%
Percent Control (kinases (468) [20]): 96%
Percent Control (kinases (468) [21]): 100%
Percent Control (kinases (468) [22]): 96%
Percent Control (kinases (468) [23]): 100%
Percent Control (kinases (468) [24]): 100%
Percent Control (kinases (468) [25]): 100%
Percent Control (kinases (468) [26]): 100%
Percent Control (kinases (468) [27]): 100%
Percent Control (kinases (468) [28]): 95%
Percent Control (kinases (468) [29]): 96%
Percent Control (kinases (468) [30]): 77%
Percent Control (kinases (468) [31]): 94%
Percent Control (kinases (468) [32]): 100%
Percent Control (kinases (468) [33]): 100%
Percent Control (kinases (468) [34]): 95%
